Results reported in US9441014B2, “Skin permeating and cell entering (SPACE) peptides and methods of use thereof” (The Regents of the University of California, priority 2010, dated 2016).
Like-named read-outs stand apart in the source and are kept apart here. Residues, ends and D or L forms follow the SMILES beside them.

Legend:
[1] = tested on: green fluorescent protein (GFP) in GFP-expressing endothelial cells; assay: GFP knockdown in GFP-expressing endothelial cells; type: cell-based
Protocol: GFP-expressing endothelial cells (ATCC) were grown in Dulbecco's Modified Eagle's Medium supplemented with 10% fetal bovine serum. GFP siRNA, 5′-GACGUAAACGGCCACAAGUUC N6-3′ (SEQ ID NO:26) (Dharmacon), was conjugated to fluorescently labeled peptide (containing a free carboxyl group) through EDC chemistry.
A 10 mM peptide solution was incubated with a 10 mM solution of N-(3-Dimethylaminopropyl)-N′-ethylcarbodiimide hydrochloride (EDAC, Sigma) and a 9.5 mM solution of N-Hydroxysulfosuccinimide sodium salt (NHS, Sigma) in equal parts in MES buffer (pH 5.5) for 15 minutes. The amine modified siRNA was then added to the mixture to conjugate the peptide to siRNA and allowed to mix overnight.
The peptide-siRNA complex was added to the appropriate cell culture media to obtain a final concentration of 1 μM siRNA. The media along with peptide-siRNA was then added to the cells and allowed to incubate for 48 hours. Cells were imaged using confocal microscopy and image analysis was performed using ImageJ to determine the overall fluorescence intensity for each cell.

mouse skin = assay: Peptide penetration into mouse skin in-vivo
Protocol: The ability of the SPACE peptide to penetrate mouse skin in-vivo was tested as follows. 200 μl of fluorescently labeled peptide (1 mg/ml) was applied on the skin of a mouse. Penetration was assessed at various time points by harvesting the skin, sectioning it and observing under a microscope.

human skin = assay: Peptide penetration in human skin (confocal microscopy); type: in vitro ADME
Protocol: The ability of the SPACE peptide to penetrate human skin when removed from phage and conjugated to an exemplary small molecule in the form of a fluorescent tag was tested as follows. Full thickness human skin was obtained from the National Disease Research Interchange. […] Fluorescently labeled peptides, 200 μL of a 1 mg/mL solution, were placed in the donor compartment of the FDC. After 24 hours, the remaining solution in the donor compartment was removed and the FDC was dismantled. The skin sample was retrieved and rinsed with DI water to remove excess peptide or peptide complex on the surface of the skin.

porcine skin [2] = assay: Peptide penetration into porcine skin (confocal microscopy); type: in vitro ADME; details: 200 μL of 1 mg/mL, 24 hours
Protocol: The ability of the SPACE peptide to penetrate porcine skin when removed from phage was tested as follows. Full thickness porcine skin was obtained and prepared as described above. Fluorescently labeled peptides, 200 μL of a 1 mg/mL solution, were placed in the donor compartment of the FDC. After 24 hours, the remaining solution in the donor compartment was removed and the FDC was dismantled. The skin sample was retrieved and rinsed with DI water to remove excess peptide or peptide complex on the surface of the skin.

porcine skin [3] = assay: Inulin permeability of porcine skin after co-incubation with peptide; type: in vitro ADME
human keratinocytes = assay: MTT assay on keratinocyte cultures; type: cell-based; details: 0.1-1.0 mg/mL
Protocol: (a) Peptide internalization (percent of control) for control peptide and SPACE peptide at 4° C. and with the endocytosis inhibitors deoxy-D-glucose, chlorpromazine, nystatin, and EIPA in human keratinocytes. (b) Cell proliferation of human keratinocytes in the presence of control peptide (open bars) or SPACE peptide (closed bars) at 0.1 mg/mL and 1.0 mg/mL. Error cars indicate SD (N=4).

porcine skin [4] = type: in vitro ADME
Protocol: The ability of the SPACE peptide to carry macromolecular cargos across the SC was tested as follows. Full thickness porcine skin was obtained and prepared as described above. The peptide was first conjugated to the macromolecule as described in greater detail below and then the peptide-macromolecule complex was placed into the donor compartment of the FDC. After 24 hours, the remaining solution in the donor compartment was removed and the FDC was dismantled. The skin sample was retrieved and rinsed with DI water to remove excess peptide complex on the surface of the skin.
To conjugate the peptide to the macromolecule streptavidin, 80 μL of a 1 mg/mL biotinylated peptide solution was incubated with 20 μL of a 2 mg/mL streptavidin-Alexa Fluor 488 conjugate (Invitrogen) solution and incubated at room temperature for 30 minutes. The resulting solution was then placed into the donor compartment of the FDC. Skin samples were harvested after 24 hours and imaged as described above.
The ability of the SPACE peptide to carry quantum dots across the SC was also tested. For the delivery of quantum dots into the skin, 198 μL of a 100 ng/mL biotinylated peptide solution was incubated with 2 μL of QDot 525 streptavidin conjugate (Invitrogen) for 1 hour at room temperature. The 200 μL suspension was then placed into the donor compartment of the FDC. […]

With “5′-GACGUAAACGGCCACAAGUUC N6-3′ (GACGUAAACGGCCACAAGUUC; siRNA; 3' N6 group, conjugated to fluorescently labeled peptide by EDC chemistry, further chemistry not given here) [siRNA alone, GFP siRNA (Dharmacon)]” the “knockdown of GFP” value ([1]; 1 μM siRNA, 48 hours) was “no significant knockdown” and the “knockdown of GFP when complexed with Lipofectamine” value ([1]; complexed with Lipofectamine, compared to no siRNA treatment) was “knockdown was significant”.

With `C[C@H](N)C(=O)N[C@H]1CSSC[C@@H](C(=O)NCC(=O)O)NC(=O)[C@H](CO)NC(=O)[C@H](CCC(N)=O)NC(=O)[C@H]([C@@H](C)O)NC(=O)[C@H](CCC(N)=O)NC(=O)CNC(=O)[C@H](Cc2c[nH]cn2)NC(=O)[C@H]([C@@H](C)O)NC1=O` [control peptide] (HELM PEPTIDE1{A.C.T.H.G.Q.T.Q.S.C.G}$PEPTIDE1,PEPTIDE1,2:R3-10:R3$$$V2.0; N-terminus and C-terminus assumed) the “penetration into mouse skin in vivo” value (mouse skin; 200 μl of 1 mg/ml topical) was “lack of skin penetration in vivo”, the “penetration/localization in human skin observed from the top” value (human skin; top view looking down on SC, 24 hours) was “no significant penetration” and the “penetration of fluorescently labeled peptide into porcine skin” value (porcine skin [2]) was “No significant penetration”.

With `C[C@H](N)C(=O)N[C@H]1CSSC[C@@H](C(=O)NCC(=O)O)NC(=O)[C@H](CCC(N)=O)NC(=O)[C@H](Cc2c[nH]cn2)NC(=O)[C@H](CCC(N)=O)NC(=O)[C@H]([C@@H](C)O)NC(=O)[C@H](CO)NC(=O)CNC(=O)[C@H]([C@@H](C)O)NC1=O` [SPACE peptide] (HELM PEPTIDE1{A.C.T.G.S.T.Q.H.Q.C.G}$PEPTIDE1,PEPTIDE1,2:R3-10:R3$$$V2.0; N-terminus and C-terminus assumed) the “penetration into mouse skin in vivo after 30 minutes” value (mouse skin; mouse, in vivo) was “resulted in penetration”, the “penetration into mouse skin in vivo after two hours” value (mouse skin; mouse, in vivo) was “significant penetration into the skin and localization in the deep dermis” and the “effect on inulin permeability” value (porcine skin [3]) was “only a modest increase”. The “penetration/localization in human skin observed from the top” value (human skin) was “high localization of the SPACE peptide within the corneocytes” and the “toxicity to cells (MTT)” value (human keratinocytes) was “not toxic”.

For “Streptavidin not conjugated to SPACE peptide: streptavidin-Alexa Fluor 488 conjugate (Invitrogen) alone”, the “penetration of Alexa Fluor 488 streptavidin into porcine skin” value (porcine skin [4]) was “minimal penetration into epidermis”.
